The text below walks through data of ChEMBL document CHEMBL3638462, “Pyridine and pyrimidine derivatives as phosphodiesterase 10 inhibitors” (2014).

Molecules are shown by their SMILES. pIC50: −log10 of the molar value. Several values for one entry are separate records, joined by “and”; a condition that tells them apart may be missing. Equal entries are not always repeated.

For this assay, the target named is cAMP and cAMP-inhibited cGMP 3',5'-cyclic phosphodiesterase 10A (Homo sapiens, UniProt Q9Y233). Briefly: Enzyme Inhibition Assay: To check the inhibition profile, 5 μL of serial diluted compounds were incubated with 5 μL of diluted PDE10 enzyme (BPS Bioscience, San Diego, Calif.) or tissue homogenate in a 384-well polystyrene assay plate (Corning, Corning, N.Y.) for 30 min at room temperature. After incubation, 10 μL of diluted fluorescein labeled cAMP or cGMP substrate were added and incubated for 60 min at room temperature. The reaction was stopped by adding 60 μL of diluted binding reagents and plates were read on an Envision (Perkin Elmer, Waltham, Mass.) for time resolved fluorescence resonance energy transfer. The data were analyzed with GraphPad Prism (La Jolla, Calif.).
Chain of cAMP and cAMP-inhibited cGMP 3',5'-cyclic phosphodiesterase 10A (Q9Y233 whole entry): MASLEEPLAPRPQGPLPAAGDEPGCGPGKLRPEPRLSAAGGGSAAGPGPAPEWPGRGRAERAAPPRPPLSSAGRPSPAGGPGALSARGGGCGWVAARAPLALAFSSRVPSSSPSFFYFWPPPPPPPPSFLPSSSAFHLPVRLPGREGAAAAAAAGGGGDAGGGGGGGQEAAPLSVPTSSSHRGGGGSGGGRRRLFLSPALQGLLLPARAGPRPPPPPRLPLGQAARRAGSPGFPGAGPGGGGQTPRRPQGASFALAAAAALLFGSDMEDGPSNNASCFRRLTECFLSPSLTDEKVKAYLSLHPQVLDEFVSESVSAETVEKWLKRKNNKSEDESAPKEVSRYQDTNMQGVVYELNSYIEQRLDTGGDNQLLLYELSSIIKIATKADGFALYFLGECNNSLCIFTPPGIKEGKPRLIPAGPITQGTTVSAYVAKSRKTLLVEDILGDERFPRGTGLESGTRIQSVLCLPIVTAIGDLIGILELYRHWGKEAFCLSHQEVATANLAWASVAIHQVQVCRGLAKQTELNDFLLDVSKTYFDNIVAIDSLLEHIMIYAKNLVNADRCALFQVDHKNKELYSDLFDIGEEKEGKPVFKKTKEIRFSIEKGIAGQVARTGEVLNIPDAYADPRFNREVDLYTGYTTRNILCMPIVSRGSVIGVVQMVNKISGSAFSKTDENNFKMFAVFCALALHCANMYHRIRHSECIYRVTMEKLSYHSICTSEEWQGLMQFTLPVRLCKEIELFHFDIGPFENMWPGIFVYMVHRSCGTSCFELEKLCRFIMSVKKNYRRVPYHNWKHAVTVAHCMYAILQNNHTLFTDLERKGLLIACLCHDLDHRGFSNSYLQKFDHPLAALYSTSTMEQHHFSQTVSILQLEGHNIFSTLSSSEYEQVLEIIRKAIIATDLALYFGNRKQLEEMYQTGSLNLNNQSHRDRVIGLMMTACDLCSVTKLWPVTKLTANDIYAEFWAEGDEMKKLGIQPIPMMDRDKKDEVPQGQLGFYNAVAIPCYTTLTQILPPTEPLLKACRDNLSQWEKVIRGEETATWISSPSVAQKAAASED

In general, pIC50 refers to the IC50 on a negative log10 scale, so that one unit is a factor of ten. A low value points to a large IC50. Compound `N#Cc1ccc2[nH]c(Nc3ccc(Oc4ncccc4C(F)(F)F)cc3)nc2c1` showed a pIC50 of 6.95.

The compound `CC(=O)N1CCC(c2cccnc2Oc2ccc(C(=O)c3nc4ccccc4[nH]3)cc2)CC1` had a pIC50 of 9.80.

Regarding `O=C(c1ccc(Oc2ncccc2-c2ccncc2)cc1)c1nc2ccccc2[nH]1`, the pIC50 is 9.59.

`CC(=O)N1CCC(c2cccnc2Oc2ccc(Nc3nc4ccccc4s3)cc2)CC1`: the pIC50 was 9.76.

The compound `C[C@]1(O)CCC[C@H](c2cccnc2Oc2ccc(Nc3ccccn3)cc2)C1` gave a pIC50 of 7.62.

`O=C(c1ccc(Oc2ncccc2Br)cc1)c1nc2ccccc2[nH]1` gave a pIC50 of 7.35.

`Brc1cccnc1Oc1ccc(Nc2nc3ccccc3s2)cc1` showed a pIC50 of 6.16.

`Cc1cc(-c2cccnc2Oc2ccc(C(=O)c3nc4ccccc4[nH]3)cc2)ccn1` showed a pIC50 of 9.12.

The compound `Cn1cc(-c2cccnc2Oc2ccc(C(=O)c3nc4ccccc4[nH]3)cc2)cn1` gave a pIC50 of 8.20.

Compound `COc1cc(-c2cccnc2Oc2ccc(C(=O)c3nc4ccccc4[nH]3)cc2)ccn1` gave a pIC50 of 8.79.

In turn, `O=C(c1ccc(Oc2ncccc2N2CCOCC2)cc1)c1nc2ccccc2[nH]1` showed a pIC50 of 8.80.

`N#Cc1cccc(-c2cccnc2Oc2ccc(Nc3nc4ccccc4s3)cc2)c1`: the pIC50 was 7.74.

`COc1ccc(-c2cccnc2Oc2ccc(Nc3nc4ccccc4s3)cc2)cn1` had a negative logarithm of the IC50 (pIC50) of 7.63.

As for `c1cnc(Oc2ccc(Nc3nc4ccccc4s3)cc2)c(-c2cncnc2)c1`, the pIC50 was 9.52.

`O=C(c1ccc(Oc2ncccc2-c2cccnc2)cc1)c1nc2ccccc2s1` had a pIC50 of 7.49.

For `Cc1cc(-c2cccnc2Oc2ccc(Nc3nc4ccccc4s3)cc2)ccn1`, the pIC50 was 8.30.

`FC(F)(F)c1cc(-c2cccnc2Oc2ccc(Cc3nc4ccccc4[nH]3)cc2)ccn1` had a pIC50 of 6.93.

As to `FC(F)(F)c1cc(-c2cccnc2Oc2ccc(Nc3nc4ccccc4[nH]3)cc2)ccn1`, the pIC50 is 7.44.

`O=C(c1ccc(Oc2ncccc2-c2cnn(C3CC3)c2)cc1)c1nc2ccccc2[nH]1` had a negative-log IC50 (pIC50) of 7.64.

In the case of `O=C(c1ccc(Oc2ncccc2Br)cc1)c1nc2ccccc2n1C1CCCCO1` (stereo not given), the negative logarithm of the IC50 (pIC50) is 5.79.

As to `O=C(c1ccc(Oc2ncccc2N2CCOCC2)cc1)c1nc2ccccc2s1`, the pIC50 is 7.01.

With `c1cnc(Oc2ccc(Nc3nc4ccccc4s3)cc2)c(-c2ccncn2)c1`, the pIC50 was 7.65.

Take `O=C(c1ccc(Oc2ncccc2C(=O)NCCc2ccccn2)cc1)c1nc2ccccc2[nH]1`: the pIC50 is 8.76.

In the case of `c1cnc(Oc2ccc(Nc3nc4ccccc4s3)cc2)c(-c2cccc3ncccc23)c1`, the pIC50 is 8.16.

On to `COC[C@H](C)NC(=O)c1cccnc1Oc1ccc(C(=O)c2nc3ccccc3[nH]2)cc1`, for which the pIC50 is 7.89.

On to `c1cnc(Oc2ccc(Nc3nc4ccccc4s3)cc2)c(-c2ccc3c(c2)OCCO3)c1`, for which the pIC50 was 7.36.

In the case of `c1cnc(Oc2ccc(Nc3nc4ccccc4s3)cc2)c(-c2ccc3c(c2)CCO3)c1`, the pIC50 is 7.37.

In turn, `O=C(c1ccc(Oc2ncccc2-c2ncnc3nc[nH]c23)cc1)c1nc2ccccc2[nH]1` showed a negative logarithm of the IC50 (pIC50) of 7.49.

Compound `O=C(c1ccc(Oc2ncccc2-c2ccncn2)cc1)c1nc2ccccc2[nH]1` gave a pIC50 of 8.13.

For `Cc1ccc(-c2cccnc2Oc2ccc(C(=O)c3nc4ccccc4[nH]3)cc2)cn1`, the negative logarithm of the IC50 (pIC50) is 9.75.

Take `O=C(c1ccc(Oc2ncccc2Br)cc1)c1nc2ccc(F)cc2[nH]1`: the pIC50 is 7.13.

`O=C(c1ccc(Oc2ncccc2Br)cc1)c1nc2ccccc2s1` gave a pIC50 of 5.40.

Regarding `C1=C(c2cccnc2Oc2ccc(Nc3nc4ccccc4s3)cc2)CCCC1`, the negative-log IC50 (pIC50) is 7.14.

On to `C[C@@H](Cc1ccccn1)NC(=O)c1cccnc1Oc1ccc(C(=O)c2nc3ccccc3[nH]2)cc1`, for which the negative logarithm of the IC50 (pIC50) is 9.01 and 9.27.

`O=C(c1ccc(Oc2ncccc2N2CCCCC2)cc1)c1nc2ccccc2[nH]1` had a pIC50 of 7.88.

Take `O=C(c1ccc(Oc2ncccc2N2CCCC2)cc1)c1nc2ccccc2[nH]1`: the negative-log IC50 (pIC50) was 7.85.

In the case of `O=C(c1ccc(Oc2ncccc2C(=O)N[C@@H](CO)Cc2ccccc2)cc1)c1nc2ccccc2[nH]1`, the pIC50 is 7.89.

As for `O=C(c1ccc(Oc2ncccc2C(=O)N[C@H](CO)Cc2ccccc2)cc1)c1nc2ccccc2[nH]1`, the pIC50 is 9.08.

In turn, `CC(C)(CNC(=O)c1cccnc1Oc1ccc(C(=O)c2nc3ccccc3[nH]2)cc1)c1ccccn1` had a negative logarithm of the IC50 (pIC50) of 8.83.

Regarding `O=C(c1ccc(Oc2ncccc2-c2ccnc3ccccc23)cc1)c1nc2ccccc2[nH]1`, the pIC50 was 9.17.

For `O=C(c1ccc(Oc2ncccc2C(=O)NC2(Cc3ccccc3)CC2)cc1)c1nc2ccccc2[nH]1`, the pIC50 was 9.77.

`c1cnc(Oc2ccc(Nc3nc4ccccc4s3)cc2)c(-c2ccnc3ccccc23)c1` gave a pIC50 of 8.14.

Consider `CC(C)(C)OC(=O)N1CC=C(c2cccnc2Oc2ccc(Nc3nc4ccccc4s3)cc2)CC1`, for which the pIC50 was 7.35.

The compound `CN(c1ccc(Oc2ncccc2-c2cccnc2)cc1)c1nc2ccccc2s1` had a pIC50 of 7.82.

The compound `O=C(c1ccc(Oc2ncccc2-c2cccnc2)cc1)c1nc2ncccc2[nH]1` showed a pIC50 of 8.32.

Regarding `O=C(c1ccc(Oc2ncccc2C(=O)N[C@H](CO)Cc2ccc(O)cc2)cc1)c1nc2ccccc2[nH]1`, the negative logarithm of the IC50 (pIC50) was 8.44.

With `O=C(c1ccc(Oc2ncccc2C(=O)NCCc2ccccc2)cc1)c1nc2ccccc2[nH]1`, the pIC50 was 8.57.

Consider `C1=C(c2cccnc2Oc2ccc(Nc3nc4ccccc4s3)cc2)CCOC1`, for which the negative logarithm of the IC50 (pIC50) was 8.66.

Turning to `Cc1ccc(-c2cccnc2Oc2ccc(Nc3nc4ccccc4s3)cc2)cn1`, the pIC50 was 9.66.

The compound `COC1CCN(c2cccnc2Oc2ccc(Nc3nc4ccccc4s3)cc2)CC1` showed a pIC50 of 8.50.

Consider `Cc1ccc(CCNC(=O)c2cccnc2Oc2ccc(C(=O)c3nc4ccccc4[nH]3)cc2)cc1`, for which the pIC50 is 8.51.

In the case of `COC[C@H](Cc1ccccc1)NC(=O)c1cccnc1Oc1ccc(C(=O)c2nc3ccccc3[nH]2)cc1`, the pIC50 was 8.79.

For `c1cncc(-c2cccnc2Oc2ccc(Nc3nc4ccccc4[nH]3)cc2)c1`, the pIC50 was 9.75.

Turning to `O=C(c1ccc(Oc2ncccc2C(=O)NC2Cc3ccccc3C2)cc1)c1nc2ccccc2[nH]1`, the pIC50 is 7.25.

Regarding `CC(=O)N1CC=C(c2cccnc2Oc2ccc(Nc3nc4ccccc4s3)cc2)CC1`, the pIC50 is 9.44.

Regarding `CC(=O)N1CC=C(c2cccnc2Oc2ccc(C(=O)c3nc4ccccc4[nH]3)cc2)CC1`, the pIC50 was 9.71.

Consider `C[C@@H](CNC(=O)c1cccnc1Oc1ccc(C(=O)c2nc3ccccc3[nH]2)cc1)c1ccccc1`, for which the pIC50 was 8.57.

As to `O=C1C=C(c2cccnc2Oc2ccc(C(=O)c3nc4ccccc4[nH]3)cc2)CC1`, the pIC50 was 9.00.

In turn, `C[C@H](CNC(=O)c1cccnc1Oc1ccc(C(=O)c2nc3ccccc3[nH]2)cc1)c1ccccc1` showed a pIC50 of 8.06.

`CC(=O)N1CCC(c2cccnc2Oc2ccc([C@H](O)c3nc4ccccc4[nH]3)cc2)CC1` showed a pIC50 of 8.38.

For `OC(c1ccc(Oc2ncccc2C2CCOCC2)cc1)c1nc2ccccc2[nH]1` (stereo not given), the pIC50 was 7.34.

With `O=C1C=C(c2cccnc2Oc2ccc(Nc3nc4ccccc4s3)cc2)CC1`, the pIC50 is 8.55.

As to `c1cnc(Oc2ccc(Nc3nc4ccccc4s3)cc2)c([C@H]2CCCO2)c1`, the pIC50 is 7.27.

On to `O=C(c1ccc(Oc2ncccc2[C@@H]2CCCO2)cc1)c1nc2ccccc2[nH]1`, for which the pIC50 is 8.30 and 7.88.

Consider `C1=CO[C@H](c2cccnc2Oc2ccc(Nc3nc4ccccc4s3)cc2)CC1`, for which the pIC50 is 7.65.

`C[C@]1(O)CCC[C@H](c2cccnc2Oc2ccc(Nc3nc4ccccc4s3)cc2)C1` had a pIC50 of 8.16.

On to `O=C(c1ccc(Oc2ncccc2C2(F)CCOCC2)cc1)c1nc2ccccc2[nH]1`, for which the pIC50 is 9.51.

`C[C@]1(O)CCC[C@H](c2cccnc2Oc2ccc(C(=O)c3nc4ccccc4[nH]3)cc2)C1` had a pIC50 of 8.94.

The compound `CN1C[C@@H](c2cccnc2Oc2ccc(Nc3nc4ccccc4s3)cc2)CC1=O` gave a pIC50 of 9.71.

`FC(F)(c1ccc(Oc2ncccc2C2CCOCC2)cc1)c1nc2ccccc2[nH]1` gave a pIC50 of 7.94.

For the compound `Cn1c(C(=O)c2ccc(Oc3ncccc3C3CCOCC3)cc2)nc2ccccc21`, the pIC50 was 9.29.

Take `O=C(c1ccc(Oc2ncccc2[C@@H]2CC[C@H](O)C2)cc1)c1nc2ccccc2[nH]1`: the pIC50 was 9.17.

With `C[C@@]1(O)CCC[C@@H](c2cccnc2Oc2ccc(Nc3nc4ccccc4s3)cc2)C1`, the pIC50 is 8.44.

As for `C[C@H](Cc1ccc(F)cc1)NC(=O)c1cccnc1Oc1ccc(C(=O)c2nc3ccccc3[nH]2)cc1`, the negative logarithm of the IC50 (pIC50) was 9.87.

Take `COc1cncc(-c2cccnc2Oc2ccc(C(=O)c3nc4ccccc4[nH]3)cc2)c1`: the pIC50 is 9.21.

`COc1ccc(-c2cccnc2Oc2ccc(C(=O)c3nc4ccccc4[nH]3)cc2)cn1`: the pIC50 is 8.90.

Compound `C[C@H](Cc1ccccn1)NC(=O)c1cccnc1Oc1ccc(C(=O)c2nc3ccccc3[nH]2)cc1` had a pIC50 of 8.17.

Regarding `O=C(c1ccc(Oc2ncccc2[C@H]2CCC[C@@H](O)C2)cc1)c1nc2ccccc2[nH]1`, the pIC50 was 9.00.

Consider `C[C@]1(O)CCCC(c2cccnc2Oc2ccc(C(=O)c3nc4ccccc4[nH]3)cc2)C1` (stereo not given in full), for which the pIC50 is 8.91.

In turn, `C[C@]1(O)CC[C@@H](c2cccnc2Oc2ccc(Nc3nc4ccccc4s3)cc2)CC1` had a pIC50 of 7.90.

For `C[C@]1(O)CC[C@@H](c2cccnc2Oc2ccc(C(=O)c3nc4ccccc4[nH]3)cc2)CC1`, the pIC50 was 8.79.

Turning to `C[C@]1(O)CC[C@H](c2cccnc2Oc2ccc(C(=O)c3nc4ccccc4[nH]3)cc2)CC1`, the pIC50 was 8.85.

With `C[C@]1(O)CC[C@H](c2cccnc2Oc2ccc(Nc3nc4ccccc4s3)cc2)CC1`, the pIC50 is 8.35.

The compound `c1cnc(Oc2ccc(Nc3nc4ccccc4s3)cc2)c([C@@H]2CCCOC2)c1` showed a pIC50 of 8.60.

`Cn1c(C(=O)c2ccc(Oc3ncccc3C3(F)CCOCC3)cc2)nc2ccccc21` showed a pIC50 of 9.13.
